US20220401408A1, “COMPOSITIONS AND METHODS FOR RESCUING RETINAL AND CHOROIDAL STRUCTURE AND FUNCTION” (AUCKLAND UNISERVICES LIMITED, priority 2019, published 2022)

Legend:
hyperglycemic rats = assay: ERG in hyperglycemic rat diabetic retinopathy model; type: in vivo, SD rats (spontaneously hyperglycemic strain)
Text: Hyperglycemic Rat Diabetic Retinopathy Model—A spontaneously hyperglycemic strain of SD rats, which developed clinical signs of diabetic retinopathy within 4 weeks of birth were identified and isolated within the Vernon Jansen Animal Research Unit, Faculty of Medical and Health Sciences at the University of Auckland. The identification of these rats presenting with hyperglycemia and microaneurysms provided an opportunity to treat a complex, chronic disease model and assess the treatment effect based upon objective, measurable endpoints, despite lacking precise information on the etiology of the disease. Inbreeding was carried out over three generations and eyes were screened for abnormalities between 4-8 weeks of age. Additional information about these rats is presented as supplementary information. Glucose levels were tested in non-fasting rats (Lee J J, Yi H Y, Yang J W, Shin J S, Kwon J H, Kim C W. Characterization of streptozotocin-induced diabetic rats and pharmacodynamics of insulin formulations. Biosci Biotechnol Biochem. 2003; 67:2396-401) using a Freestyle Optium Glucometer (Abbott Laboratories Ltd., UK) and Freestyle Optium glucose strips.
(§1) Ten rats per group were the selected (10 normal SD and 10 hyperglycemic) grown to 5 weeks of age and assessed using OCT and ERG. The hyperglycemic rat group was then split into two subgroups of five, with one subgroup fed tonabersat once daily for 14 days from weeks 5 to 7 at a low dose level of 0.28 mg/kg in 0.5 g peanut butter, with the other subgroup fed 0.5 g peanut butter only. All animals were assessed again using ERG and OCT at 8 weeks of age before euthanizing animals and removing the eyes for immunohistochemical analysis. Data groups were randomized prior to the statistical comparison. In summary, normal SD and hyperglycemic rats were analyzed with OCT and ERG at 5 weeks of age; the hyperglycemic rats were then split into two groups and fed the vehicle or tonabersat for 14 days during weeks 6 and 7 of age. At week 8, animals were again assessed with ERG and OCT and tissues collected for immunohistochemical analysis. Four tonabersat-treated rats were, however, left until 3 months of age before final ERG and OCT and tissue collection.
Electroretinogram Recording—The procedure was performed as described previously. Vessey K A, Wilkinson-Berka J L, Fletcher E L. Characterization of retinal function and glial cell response in a mouse model of oxygen-induced retinopathy. J Comp Neurol. 2011; 519:506-27. Essentially, SD rats were dark-adapted overnight for 12-14 hours before the ERG recording. For the dry AMD, the ERG baseline was recorded for all groups before light damage and at time points after the light damage insult (24 hours, 1 week, 2 weeks and 3 months post intense light). For the DR model, ERGs were recorded at 5 weeks of age to compare normal SD and hyperglycemic rat retinal function. Tonabersat treated and vehicle control hyperglycemic rats were assessed again at 8 weeks of age. After dark adaptation, rats were anaesthetized by an intraperitoneal injection of a combination of ketamine (75 mg/kg, Parnell Technologies, New Zealand) and domitor (0.5 mg/kg, Pfizer, New Zealand). A dim red light generated by a light-emitting diode (λmax=650 nm) was used during manipulations of dark-adapted animals. The corneas were maintained hydrated with 1% carboxymethylcellulose sodium (Celluvisc, Allergan, USA) during ERG recording. Right and left eye ERGs were recorded using gold ring electrodes (Roland Consult Stasche & Finger GmbH, Germany). A U-shaped active electrode was kept in contact with the center of the cornea. […] Normal body temperature was maintained to avoid temperature-driven ERG amplitude fluctuation by placing animals on a 37° C. heated pad. Full-field ERG responses were elicited by a twin-flash ([…] stimulus interval) generated from a photographic flash unit (Nikon SB900 flash, Japan), via a Ganzfeld sphere. […]

GFAP, Connexin43, Iba-1 = assay: Immunohistochemical labelling of GFAP, Iba-1 and Connexin43 in hyperglycemic rat retina; type: in vivo, SD rats (spontaneously hyperglycemic strain); settings: dosed daily for 14 days, 8 weeks of age
Method: as §1
Tissue Collection and Processing—At the end of the final OCT recording rats was deeply anesthetized using a combination of ketamine (75 mg/kg, Parnell Technologies, New Zealand) and domitor (0.5 mg/kg, Pfizer, New Zealand). Animals were perfused transcardially with saline for 2-3 min followed by 30 min perfusion with 4% paraformaldehyde in a 0.1 M phosphate buffer, pH 7.4 (PB). Eyes were dissected from the orbit and the eyecups further immersion fixed in 4% paraformaldehyde, 30 min before washing in PB. Tissues were then cryo-protected by taking them though 10% and 20% sucrose/PB solutions at room temperature for 30 min each, before soaking in 30% sucrose/PB at 4° C. overnight. The tissue was then embedded in optimum cutting temperature compound (Sakura Finetek, Torrance, USA) for cryosectioning (16 μm section thickness) in the vertical plane using a Leica CM3050 S cryostat (Leica, Germany). Sections were collected on Superfrost Plus slides (Labserv, New Zealand) for immunohistochemical labelling. For the DR animals we collected spleen, pancreas, liver, heart and kidneys from randomly selected vehicle-injected animals (see supplementary information).
Immunohistochemical Labelling of Tissue Sections—Frozen tissue sections were air-dried at room temperature for 10-15 min and washed with 0.1 M PB. Sections were encircled with a PAP pen (Invitrogen, New Zealand) to form incubation wells and blocked with 6% normal goat serum or donkey serum (Invitrogen, USA), 1% bovine serum albumin (BSA) and 0.5% Triton X-100 in 0.1 M PB for 1 hour at room temperature. […]

[1] = 0.28 mg/kg once daily 14 days, week 8, p<0.001
[2] = 0.28 mg/kg once daily 14 days, week 8, p<0.01
[3] = significantly less than untreated, p<0.001

mixed ERG a-wave, maximum intensity (hyperglycemic rats; 0.28 mg/kg once daily 14 days, 8 weeks, untreated −370 V): -630 µV
implicit times (hyperglycemic rats; 0.28 mg/kg once daily 14 days, week 8): not different
mixed b-wave signals (hyperglycemic rats; 0.28 mg/kg once daily 14 days, week 8, all intensities, p<0.001): significantly recovered
mixed ERG a-wave vs untreated (hyperglycemic rats; 0.28 mg/kg once daily 14 days, week 8, intensities 0.1-2.1 cd·s/m2, p<0.001): significantly higher
rod PII amplitude (hyperglycemic rats; [1]): significantly recovered
rod PIII amplitude (hyperglycemic rats; [1]): significantly recovered
cone PII amplitude (hyperglycemic rats; [2]): significantly recovered
summed OPs amplitude (hyperglycemic rats; [2]): significantly recovered
mixed b-wave, maximum intensity (hyperglycemic rats; 0.28 mg/kg once daily 14 days, week 8, untreated controls 400 V): 700 µV
retinal function compared to vehicle hyperglycemic rats (hyperglycemic rats; 0.28 mg/kg oral once daily 14 days (weeks 5 to 7), week 8): significantly recovered
Compound: CC(=O)c1ccc2c(c1)[C@H](NC(=O)c1ccc(F)c(Cl)c1)[C@H](O)C(C)(C)O2 [tonabersat, N-[(3S,4S)-6-acetyl-3-hydroxy-2,2-dimethyl-3,4-dihydrochromen-4-yl]-3-chloro-4-fluorobenzamide]
inflammation (labeling for GFAP, Iba-1, Connexin43) (GFAP, Connexin43, Iba-1): reduced inflammation
Connexin43 labelling, quantification (GFAP, Connexin43, Iba-1; [3]): recovering to normal
GFAP labelling, quantification (GFAP, Connexin43, Iba-1; [3]): recovering to normal
Iba-1 labelling, quantification (GFAP, Connexin43, Iba-1; [3]): recovering to normal
